One data set relates to MCF-7/DX1. Particulars: MCF-7/DX1 vs MCF-7 cells; cited from earlier work.
The test system of the next data set is MCF-7/DX1 cells. Kind of data set: MTT cell viability assay, reversal of taxol resistance. The class given is cell-based, human. Particulars: P-gp over-expressing MCF-7/DX1 cell line, FIG. 8. As for the experimental part:
The inhibition of P-gp transport was evaluated with the prodrug dimers and monomer controls in the human carcinoma MCF7-DX1 cell line.
The P-gp-mediated multidrug resistance phenotype of cancer cells is characterized by the ability of cells to evade the cytotoxic effects of drugs that are substrates of P-gp and remain viable even at high extracellular drugs concentrations. One such compound is the cytostatic agent taxol, which is also a known P-gp substrate (Horwitz et al., 1993). Cells lines that over-express P-gp, such as the MCF-7/DX1 cell line, display a 3000-fold decrease in susceptibility to taxol (FIG. 8).

Data set [1] has as its system implanted human glioblastomas. The settings on record: cited from earlier work.
Data set [2] has as its target T1, P-gp (Mus musculus, UniProt P21447).
T1 construct: A comparison of P-gp knock-out mice to their wild-type counterparts; host or cells: mouse, in vivo (blood-brain barrier)
The settings on record: P-gp knock-out mice vs wild-type; cited from earlier work.

Data set [3] has as its target T1, P-gp. The settings on record: co-administration in mice of P-gp inhibitor LY335979 and nelfinavir; cited from earlier work.

This is an account of results in patent US20100068786A1, “METHODS AND COMPOSITIONS FOR REVERSING P-GLYCOPROTEIN MEDICATED DRUG RESISTANCE” (priority 2008, published 2010).

The structures appear in SMILES notation.

T1 sequence (P21447 whole entry): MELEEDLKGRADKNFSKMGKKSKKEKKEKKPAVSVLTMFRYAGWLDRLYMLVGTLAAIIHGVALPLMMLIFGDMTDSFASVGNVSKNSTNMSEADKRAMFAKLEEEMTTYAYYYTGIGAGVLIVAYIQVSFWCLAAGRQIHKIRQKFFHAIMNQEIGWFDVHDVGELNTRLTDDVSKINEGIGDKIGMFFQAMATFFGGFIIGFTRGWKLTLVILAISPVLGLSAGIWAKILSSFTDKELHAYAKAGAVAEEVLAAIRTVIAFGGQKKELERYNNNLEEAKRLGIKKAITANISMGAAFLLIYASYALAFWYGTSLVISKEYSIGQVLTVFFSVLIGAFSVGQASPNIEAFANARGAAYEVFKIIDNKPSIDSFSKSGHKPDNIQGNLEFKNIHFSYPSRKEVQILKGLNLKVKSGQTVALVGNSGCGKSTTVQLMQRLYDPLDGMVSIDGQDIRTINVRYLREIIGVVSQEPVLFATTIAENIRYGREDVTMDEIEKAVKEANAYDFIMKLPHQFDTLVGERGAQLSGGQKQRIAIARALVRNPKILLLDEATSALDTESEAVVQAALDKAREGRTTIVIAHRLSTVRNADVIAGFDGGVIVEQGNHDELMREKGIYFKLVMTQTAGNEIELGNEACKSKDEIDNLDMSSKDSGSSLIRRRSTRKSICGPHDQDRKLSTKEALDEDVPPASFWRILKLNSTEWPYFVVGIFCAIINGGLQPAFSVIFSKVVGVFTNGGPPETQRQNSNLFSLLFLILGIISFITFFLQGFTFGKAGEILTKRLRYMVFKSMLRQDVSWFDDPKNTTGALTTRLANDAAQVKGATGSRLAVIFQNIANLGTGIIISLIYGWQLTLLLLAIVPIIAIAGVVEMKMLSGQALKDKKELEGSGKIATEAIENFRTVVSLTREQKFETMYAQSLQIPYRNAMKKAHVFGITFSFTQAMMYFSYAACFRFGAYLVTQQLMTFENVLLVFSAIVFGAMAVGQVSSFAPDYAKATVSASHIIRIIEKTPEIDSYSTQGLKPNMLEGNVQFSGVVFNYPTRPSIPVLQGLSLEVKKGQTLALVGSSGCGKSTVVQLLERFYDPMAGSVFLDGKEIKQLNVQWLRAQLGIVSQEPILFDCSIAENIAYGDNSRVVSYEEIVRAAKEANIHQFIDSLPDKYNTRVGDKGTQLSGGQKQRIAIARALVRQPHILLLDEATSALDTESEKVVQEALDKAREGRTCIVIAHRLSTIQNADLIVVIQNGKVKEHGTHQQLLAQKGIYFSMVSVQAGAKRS

Turning to `COc1cccc2c1C(=O)c1c(O)c3c(c(O)c1C2=O)C[C@@](O)(C(=O)CO)C[C@@H]3O[C@H]1C[C@H](N)[C@H](O)[C@H](C)O1` [doxorubicin], the resistance to doxorubicin with MCF-7/DX1 is given as 200 fold.

As to `CC(=O)O[C@H]1C(=O)[C@@]2(C)[C@H]([C@H](OC(=O)c3ccccc3)[C@]3(O)C[C@H](OC(=O)[C@H](O)[C@@H](NC(=O)c4ccccc4)c4ccccc4)C(C)=C1C3(C)C)[C@]1(OC(C)=O)CO[C@@H]1C[C@@H]2O` [taxol, paclitaxel], the “decrease in susceptibility to taxol” value with MCF-7/DX1 cells was determined as 3000 fold. Further, in data set [1] (co-administration of paclitaxel with valspodar (PSC833) in mice), the “reduction of growth of implanted human glioblastomas” value was 90%. In addition, the “effect on tumor size” value in data set [1] (treatment with either drug alone, mice) is listed as “no effect”. As for `Cc1c(O)cccc1C(=O)N[C@@H](CSc1ccccc1)[C@H](O)CN1C[C@H]2CCCC[C@H]2C[C@H]1C(=O)NC(C)(C)C` [nelfinavir], the “increase in brain penetration” value at P-gp [2] is on record as 40 fold. The “increase in the level of the therapeutic agent in the brain” value on P-gp [3] is 25 fold. As for `CC(C)(C)NC(=O)[C@@H]1C[C@@H]2CCCC[C@@H]2CN1C[C@@H](O)[C@H](Cc1ccccc1)NC(=O)[C@H](CC(N)=O)NC(=O)c1ccc2ccccc2n1` [saquinavir], the “increase in brain penetration” value at P-gp [2] was 10 fold.
